Results on 8 compounds are retold here after publication PMC4029172 (eLife, 2014).

In brackets after ≈: the same amount, converted by molar mass. Numbered stars: 1 amine (or outer) side, 2 acyl side, 3 side chain; on linkers, the order of the positions; unused ones are H or OH. Bridge positions count the residues as written; N and C are the ends. Square brackets hold non-standard residues; d marks the D form. Peptide text beside a SMILES is read from it. * marks the point of attachment. X5 = C[C@@H](Oc1ccc([C@H](N[*:1])C(=O)[*:2])cc1)[C@](O)(/C=C/C(=O)[*:3])CBr; X4 = CC(Oc1ccc(C(N[*:1])C(=O)[*:2])cc1)C(O)(C=CC(=O)[*:3])CCl; Pentanoyl(2R-Me,3R-OH,4-Me) = CC(C)[C@@H](O)[C@@H](C)C(=O)*; d(aIle) = CC[C@H](C)[C@@H](N)C(=O)O; d(aThr) = C[C@@H](O)[C@@H](N)C(=O)O; NMeF = CN[CH](Cc1ccccc1)C(=O)O; X3 = CC(C)C(O)C(C)C(=O)*

Test [1] relates to E. coli D21f2tolC Sal-resistant mutants. Kind of test: Cross-resistance levels of Sal-resistant mutants. It is filed as cell-based, Escherichia coli. As to conditions: wild-type reference of Figure 4B.
In test [2] the test system is E. coli D21f2tolC Rif-, Stl-, CBR703-, Myx- and Lpm-resistant mutants. Kind of test: Cross-resistance levels of Rif-, Stl-, CBR703-, Myx- and Lpm-resistant mutants. Type of test: cell-based, Escherichia coli. As to conditions: wild-type reference of Figure 4C.
Test [3] has as its target T1, E. coli RNAP holoenzyme (Escherichia coli, UniProt P0A8T7+P0A8V2). Type of test: biochemical.
For test [4], the target named is T1, E. coli RNAP holoenzyme. Type of test: biochemical. This is another data set of the same source.
Test [5] relates to Enterobacter cloacae ATCC 13047. Nature of the test: microbe, parasite or virus in culture. Type of test: cell-based. As to conditions: ATCC13047.
Test [6] concerns Haemophilus influenzae ATCC 49247. Kind of test: microbe, parasite or virus in culture. As to conditions: ATCC49247. Type of test: cell-based.
Test [7] deals with Neisseria gonorrhoeae ATCC 19424. Kind of test: microbe, parasite or virus in culture. It is filed as cell-based. As to conditions: ATCC19424.
The target in test [8] is Staphylococcus aureus RNAP (Staphylococcus aureus, UniProt Q5HID2+Q5HID3). Nature of the test: biochemical.
In the next test the target is Escherichia coli RNAP (Escherichia coli, UniProt P0A8T7+P0A8V2). Nature of the test: biochemical.
Test [9] concerns Bacillus anthracis Vollum 1B. Kind of test: microbe, parasite or virus in culture. It is filed as cell-based. As to conditions: VOLLUM1B.
A further test relates to Burkholderia mallei CHN7. Kind of test: microbe, parasite or virus in culture. Type of test: cell-based.
Test [10] concerns Pseudomonas aeruginosa ATCC 10145. Nature of the test: microbe, parasite or virus in culture. It is filed as cell-based. The settings on record: ATCC10145.
Test [11] concerns Moraxella catarrhalis ATCC 25238. Nature of the test: microbe, parasite or virus in culture. It is filed as cell-based. The settings on record: ATCC25238.
The subject of a further test is Yersinia pestis CO92. Kind of test: microbe, parasite or virus in culture. It is filed as cell-based.
Test [12] concerns the target Thermus thermophilus RNAP (Thermus thermophilus, UniProt Q8RQE8+Q8RQE9). Kind of test: biochemical.
For test [13], the system named is E. coli D21f2tolC spontaneous Sal-resistant mutants. Nature of the test: Resistance levels of spontaneous Sal-resistant mutants. It is filed as cell-based, Escherichia coli. The settings on record: for resistance level, all mutants: all 21 spontaneous Sal-resistant substitutions.
For test [14], the system named is E. coli D21f2tolC. Nature of the test: Frequency of spontaneous Sal-resistant mutants. The settings on record: E. coli D21f2tolC plated on agar containing Sal; listed as Sal. It is filed as cell-based, Escherichia coli.
The target in test [15] is T1, E. coli RNAP holoenzyme. Kind of test: biochemical.
The test system of test [16] is E. coli D21f2tolC. Kind of test: Macromolecular synthesis in bacterial cells in culture. Type of test: cell-based, Escherichia coli. As to conditions: 2 x MIC; 0-30 min. Here is the method:
Macromolecular synthesis assays were performed essentially as in [Cotsonas King and Wu, 2009]. E. coli D21f2tolC ([Fralick and Burns-Keliher, 1994]) was cultured in 10 ml LB broth ([Sambrook and Russell, 2001]) at 37°C with shaking until OD600 = 0.4–0.8, and cultures were diluted with LB broth to OD600 = 0.167. Aliquots (90 µl) were dispensed into wells of a 96-well plate; were supplemented with 7 µl of pre-warmed 4 µCi/ml [^14C]-thymidine, 10 µCi/ml [^14C]-uracil, or 30 µCi/ml [^14C]-amino acid mix (PerkinElmer, Waltham, MA); were incubated 10 min at 37°C with shaking; were supplemented with 3 µl 3.3 µg/ml SalA in methanol (final concentration = 2 × MIC), 3 µl 13 µg/ml Rif in methanol (final concentration = 2 × MIC), or 3 µl solvent blank; and incubated at 37°C with shaking. At time points 0, 10, 20, and 30 min after the addition of SalA, Rif, or solvent blank, rows of samples were transferred to a second 96-well plate, containing 100 µl ice-cold 10% trichloroacetic acid (TCA) in each well, and the second plate was incubated on ice. 1 hr after the final time point, TCA precipitates were collected by filtration onto glass-fiber filters (Filtermat A; PerkinElmer; pre-rinsed twice with 5% TCA), washed with 2 × ∼300 µl 5% TCA, washed with 3 × ∼300 µl water, and washed with 2 × ∼300 µl 10% ethanol, using a Packard FilterMate 196 Cell Harvester with Matrix Filter upper head assembly (PerkinElmer). Filters were dried under a heat lamp, wrapped in a single layer of plastic wrap, and exposed to a storage phosphor screen for 18–19 hr, and analyzed by storage-phosphor scanning (Typhoon; GE Healthcare).

Test [17] addresses T1, E. coli RNAP holoenzyme. It is filed as biochemical. The source holds these as a separate data set.
Test [18] deals with T1, E. coli RNAP holoenzyme. Type of test: biochemical. The source holds these as a separate data set.
The next test relates to E. coli RNAP core enzyme. It is filed as biochemical, Escherichia coli.
The subject of test [19] is wild-type or ΔTL E. coli RNAP core enzyme. Type of test: biochemical, Escherichia coli.
Test [20] relates to E. coli D21f2tolC plasmid-borne induced Sal-resistant mutants.
Test [21] has as its system E. coli D21f2tolC. Nature of the test: Resistance rates (fluctuation assays). The settings on record: each agent at 2 × MIC.

The IC50 is the midpoint of a concentration-inhibition curve. Low readings indicate inhibition by little substance, high ones a need for much substance. The Ki is a measure of affinity in units of concentration, obtained from inhibition or displacement. Higher therefore signals weaker binding.

T1 sequence (P0A7Z4 whole entry): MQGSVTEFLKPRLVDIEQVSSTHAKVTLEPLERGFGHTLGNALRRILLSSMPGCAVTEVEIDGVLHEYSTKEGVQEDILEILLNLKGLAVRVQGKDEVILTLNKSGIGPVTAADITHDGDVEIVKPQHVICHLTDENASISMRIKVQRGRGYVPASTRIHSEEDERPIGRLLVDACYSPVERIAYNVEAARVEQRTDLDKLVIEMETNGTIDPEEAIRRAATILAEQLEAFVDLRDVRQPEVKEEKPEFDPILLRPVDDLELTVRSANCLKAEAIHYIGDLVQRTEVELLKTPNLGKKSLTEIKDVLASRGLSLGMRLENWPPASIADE
T1 sequence (P0A800 whole entry, further chain): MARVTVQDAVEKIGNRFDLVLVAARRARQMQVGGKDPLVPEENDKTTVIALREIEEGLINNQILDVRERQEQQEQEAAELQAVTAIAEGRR
T1 sequence (P0A8T7 whole entry): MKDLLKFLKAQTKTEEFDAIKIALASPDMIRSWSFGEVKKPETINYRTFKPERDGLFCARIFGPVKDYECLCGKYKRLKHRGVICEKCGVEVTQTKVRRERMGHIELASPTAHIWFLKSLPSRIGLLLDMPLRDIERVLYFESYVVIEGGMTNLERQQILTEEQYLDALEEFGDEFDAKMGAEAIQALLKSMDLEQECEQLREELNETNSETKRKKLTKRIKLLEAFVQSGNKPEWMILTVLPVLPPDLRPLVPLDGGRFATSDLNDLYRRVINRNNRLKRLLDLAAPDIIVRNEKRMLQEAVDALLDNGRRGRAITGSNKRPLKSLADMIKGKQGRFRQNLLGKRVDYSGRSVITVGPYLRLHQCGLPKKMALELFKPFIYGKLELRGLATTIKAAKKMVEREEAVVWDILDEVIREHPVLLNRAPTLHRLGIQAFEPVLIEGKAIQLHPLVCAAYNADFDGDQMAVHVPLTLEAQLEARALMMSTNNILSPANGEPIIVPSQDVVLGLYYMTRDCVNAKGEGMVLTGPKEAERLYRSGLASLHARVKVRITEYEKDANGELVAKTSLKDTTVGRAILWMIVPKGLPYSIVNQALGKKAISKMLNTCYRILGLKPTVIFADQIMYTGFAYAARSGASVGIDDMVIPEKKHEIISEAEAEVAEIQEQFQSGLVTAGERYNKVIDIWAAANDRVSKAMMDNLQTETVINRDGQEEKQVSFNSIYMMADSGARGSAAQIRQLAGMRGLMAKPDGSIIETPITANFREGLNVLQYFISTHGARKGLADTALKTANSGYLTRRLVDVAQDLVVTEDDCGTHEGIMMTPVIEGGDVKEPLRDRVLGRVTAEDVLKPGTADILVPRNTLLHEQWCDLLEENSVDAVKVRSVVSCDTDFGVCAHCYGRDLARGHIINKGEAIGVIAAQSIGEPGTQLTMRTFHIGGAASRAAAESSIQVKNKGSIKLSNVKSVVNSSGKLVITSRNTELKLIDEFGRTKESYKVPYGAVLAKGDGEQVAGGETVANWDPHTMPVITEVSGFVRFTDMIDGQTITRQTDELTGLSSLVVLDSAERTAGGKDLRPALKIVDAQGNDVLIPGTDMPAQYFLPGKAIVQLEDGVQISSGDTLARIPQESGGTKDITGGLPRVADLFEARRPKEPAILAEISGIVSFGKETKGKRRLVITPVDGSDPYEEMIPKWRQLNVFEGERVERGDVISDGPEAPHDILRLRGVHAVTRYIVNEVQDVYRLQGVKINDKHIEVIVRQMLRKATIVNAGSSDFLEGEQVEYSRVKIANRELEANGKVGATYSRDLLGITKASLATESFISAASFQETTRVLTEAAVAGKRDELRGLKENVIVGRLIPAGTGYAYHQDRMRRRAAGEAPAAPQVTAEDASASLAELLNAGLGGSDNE
T1 sequence (P00579 whole entry, further chain): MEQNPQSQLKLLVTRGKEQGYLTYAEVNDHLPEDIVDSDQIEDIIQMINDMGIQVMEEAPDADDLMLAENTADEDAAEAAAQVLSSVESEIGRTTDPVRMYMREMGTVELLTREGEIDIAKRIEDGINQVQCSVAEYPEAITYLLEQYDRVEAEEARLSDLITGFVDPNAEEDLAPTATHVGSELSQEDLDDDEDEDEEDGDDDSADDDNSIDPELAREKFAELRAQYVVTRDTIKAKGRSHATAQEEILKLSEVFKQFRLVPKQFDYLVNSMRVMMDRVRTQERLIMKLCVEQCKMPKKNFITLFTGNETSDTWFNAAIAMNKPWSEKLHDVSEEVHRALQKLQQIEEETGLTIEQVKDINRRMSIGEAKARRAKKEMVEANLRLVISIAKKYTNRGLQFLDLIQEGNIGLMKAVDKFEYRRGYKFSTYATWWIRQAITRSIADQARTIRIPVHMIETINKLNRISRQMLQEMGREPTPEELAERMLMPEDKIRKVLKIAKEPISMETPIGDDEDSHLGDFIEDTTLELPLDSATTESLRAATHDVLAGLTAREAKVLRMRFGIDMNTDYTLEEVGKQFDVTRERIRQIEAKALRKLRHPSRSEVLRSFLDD
T1 sequence (P0A8V2 whole entry): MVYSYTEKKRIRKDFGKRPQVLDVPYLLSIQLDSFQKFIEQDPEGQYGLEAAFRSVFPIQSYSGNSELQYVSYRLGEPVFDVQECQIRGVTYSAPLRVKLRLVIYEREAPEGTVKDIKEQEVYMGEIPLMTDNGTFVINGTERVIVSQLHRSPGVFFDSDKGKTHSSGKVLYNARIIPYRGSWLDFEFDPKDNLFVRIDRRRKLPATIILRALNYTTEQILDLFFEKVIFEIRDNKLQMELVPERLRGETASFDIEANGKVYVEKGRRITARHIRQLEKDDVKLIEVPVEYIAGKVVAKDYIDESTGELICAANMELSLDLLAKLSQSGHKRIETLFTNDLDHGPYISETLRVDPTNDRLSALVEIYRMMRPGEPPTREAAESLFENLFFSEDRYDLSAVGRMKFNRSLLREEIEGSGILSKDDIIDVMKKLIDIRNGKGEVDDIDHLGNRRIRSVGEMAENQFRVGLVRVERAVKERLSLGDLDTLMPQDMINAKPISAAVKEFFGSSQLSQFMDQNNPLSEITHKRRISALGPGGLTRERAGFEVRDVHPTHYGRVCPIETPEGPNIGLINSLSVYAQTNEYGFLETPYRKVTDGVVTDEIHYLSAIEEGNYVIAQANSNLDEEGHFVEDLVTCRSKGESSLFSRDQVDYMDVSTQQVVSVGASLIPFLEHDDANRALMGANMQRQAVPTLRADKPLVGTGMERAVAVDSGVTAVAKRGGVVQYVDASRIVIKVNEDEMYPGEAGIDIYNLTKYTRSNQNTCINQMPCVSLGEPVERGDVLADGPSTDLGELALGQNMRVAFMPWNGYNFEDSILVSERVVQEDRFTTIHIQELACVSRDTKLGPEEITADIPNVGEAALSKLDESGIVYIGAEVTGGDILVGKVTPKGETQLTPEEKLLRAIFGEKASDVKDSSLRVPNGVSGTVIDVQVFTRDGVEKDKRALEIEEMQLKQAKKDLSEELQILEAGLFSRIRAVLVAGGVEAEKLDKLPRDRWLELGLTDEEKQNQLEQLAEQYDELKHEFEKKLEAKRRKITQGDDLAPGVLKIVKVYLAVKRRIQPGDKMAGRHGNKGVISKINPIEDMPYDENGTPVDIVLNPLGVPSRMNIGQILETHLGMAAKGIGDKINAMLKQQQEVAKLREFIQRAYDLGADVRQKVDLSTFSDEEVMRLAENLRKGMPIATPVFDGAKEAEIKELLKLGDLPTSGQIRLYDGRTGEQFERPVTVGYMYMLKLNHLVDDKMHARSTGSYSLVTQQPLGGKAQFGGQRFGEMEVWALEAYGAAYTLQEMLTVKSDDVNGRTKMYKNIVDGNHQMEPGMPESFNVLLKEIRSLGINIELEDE

For the compound `ONC(=Nc1ccccc1)c1cccc(C(F)(F)F)c1` [CBR703], the MICwild-type in test [1] and in test [2] was 6.25 µg/mL in each case.
In the case of `CO[C@H]1/C=C/O[C@@]2(C)Oc3c(C)c(O)c4c(O)c(c(/C=N/N5CCN(C)CC5)c(O)c4c3C2=O)NC(=O)/C(C)=C\C=C\[C@H](C)[C@H](O)[C@@H](C)[C@@H](O)[C@@H](C)[C@H](OC(C)=O)[C@@H]1C` [Rif, rifampin], the MICwild-type in [1] and in test [2] was 0.20 µg/mL throughout. Also, the “effect on nucleotide addition in primer-dependent transcription initiation” value at E. coli RNAP holoenzyme [3] is recorded as “does not inhibit the first nucleotide-addition step”. Moreover, the “effect on nucleotide addition in transcription elongation” value (shortened to “effect … in transcription elongation”) on E. coli RNAP holoenzyme [4] is recorded as “do not inhibit transcription elongation”.
For `CC[C@H](C)[C@H]1NC(=O)[C@@H](NC(=O)[C@H](C)[C@H](O)C(C)C)[C@@H](C)OC(=O)[C@@H]2COC(=O)CNC(=O)/C=C/[C@](O)(CBr)[C@@H](C)Oc3ccc(cc3)[C@H](NC1=O)C(=O)N(C)[C@@H](Cc1ccccc1)C(=O)N[C@H]([C@@H](C)O)C(=O)N2` [Sal-Br] ({Pentanoyl(2R-Me,3R-OH,4-Me)}-T[d(aIle)][X5][NMeF][d(aThr)]S; ester 1-C; linker 3-6 via G), the MIC in test [5] is 3.13 µg/mL (≈ 2.84 µM); in [6], 6.25 µg/mL (≈ 5.68 µM); in test [7], 25 µg/mL (≈ 22.7 µM). In addition, the IC50 in test [8] came to 700 nM; against Escherichia coli RNAP it was 900 nM.
Take `CC[C@@H](C)[C@@H]1NC(=O)[C@H](NC(=O)[C@@H](C)[C@@H](O)C(C)C)[C@H](C)OC(=O)[C@H]2COC(=O)CNC(=O)/C=C/[C@@]3(CO3)[C@H](C)Oc3ccc(cc3)[C@H](NC1=O)C(=O)N(C)[C@H](Cc1ccccc1)C(=O)N[C@@H]([C@H](C)O)C(=O)N2` [SalA, Salinamide A]: the MIC in test [9] came out at 25 µg/mL (≈ 24.5 µM); in test [5], 1.56 µg/mL (≈ 1.53 µM); in test [6], 6.25 µg/mL (≈ 6.13 µM); in test [7] it was 25 µg/mL (≈ 24.5 µM); against Burkholderia mallei CHN7, 25 µg/mL (≈ 24.5 µM); in [10], 50 µg/mL (≈ 49 µM). Also, the MIC (in [11]; in the test on Yersinia pestis CO92) was 50 µg/mL (≈ 49 µM) in each case. Moreover, the values for the IC50 (in test [8]; against Escherichia coli RNAP; in test [12]) were 200 nM, 200 nM and more than 100000 nM, respectively. For the same compound, in [13], the “resistance level, all mutants” value was not below 16 fold. In test [13] ({}), the “resistance level, nine high-level mutants” value is given as not below 128 fold. Further, the MICwild-type in test [1], in test [2] and in [20] was 0.049 µg/mL throughout. The “frequency of spontaneous mutation to Sal-resistance” value with E. coli D21f2tolC [14] was ~1 × 10^−9. In addition, the Ki at E. coli RNAP holoenzyme [15] was 200 nM. For the same compound, the mode of inhibition result on E. coli RNAP holoenzyme [15] is “noncompetitive”. In addition, in the test with E. coli D21f2tolC [16], the “effect on DNA synthesis ([14C]-thymidine incorporation)” value is given as “no effect on DNA synthesis”. For the same compound, in the test on E. coli D21f2tolC [16], the “effect on RNA synthesis ([14C]-uracil incorporation)” value is reported as “inhibits RNA synthesis at the first time point following addition”. Moreover, the “effect on protein synthesis ([14C]-amino acids incorporation)” value in the test on E. coli D21f2tolC [16] was “inhibits protein synthesis at later time points”. For the same compound, on E. coli RNAP holoenzyme [17], the “effect on formation of RNAP-promoter open complex (RPo)” value is recorded as “does not inhibit formation of a heparin-resistant RNAP-promoter open complex”. In addition, at E. coli RNAP holoenzyme [3], the “effect on nucleotide addition in primer-dependent transcription initiation” value is “inhibits all nucleotide-addition steps”. Also, the “effect on nucleotide addition in de novo transcription initiation” value at E. coli RNAP holoenzyme [18] is recorded as “inhibits all nucleotide-addition steps”. Further, the “effect … in transcription elongation” value at E. coli RNAP holoenzyme [4] is “inhibits nucleotide addition in transcription elongation”. The effect on pyrophosphorolysis entry in the test on E. coli RNAP core enzyme is recorded as “inhibits not only the forward reaction of nucleotide addition but also the reverse reaction, pyrophosphorolysis”. Further, the “requirement of RNAP trigger loop for inhibition” value in [19] was “does not require the RNAP active-center subregion referred to as the ‘trigger loop’”. In addition, the “resistance rate (per generation)” value in the test with E. coli D21f2tolC [21] (listed as Sal) was 2 × 10^−9 per generation.
As for `CCC(C)C1NC(=O)C(NC(=O)C(C)C(O)C(C)C)C(C)OC(=O)C2COC(=O)CNC(=O)C=CC(O)(CCl)C(C)Oc3ccc(cc3)C(NC1=O)C(=O)N(C)C(Cc1ccccc1)C(=O)NC(C(C)O)C(=O)N2` (stereo not shown) [SalB, salinamide B] (X3-TI[X4][NMeF]TS; ester 1-C; linker 3-6 via G; configuration not given here), the MIC was more than 50 µg/mL in [9]; 25 µg/mL (≈ 23.7 µM) in test [7]; 50 µg/mL (≈ 47.3 µM) with Burkholderia mallei CHN7; more than 50 µg/mL in [10]; more than 50 µg/mL against Yersinia pestis CO92. Further, the figures for the half-inhibitory concentration (IC50) (in [8]; against Escherichia coli RNAP) were 800 nM and 500 nM, respectively. In test [13], the “resistance level, all mutants” value is on record as not below 16 fold. The MICwild-type in test [20] was found to be 0.20 µg/mL.
Consider `CNC(=O)[C@@H](C)[C@H]1C(=O)/C(=C(O)/C=C/C(C)=C/[C@@H](C)[C@H]2O[C@@]3(C)O[C@H](C=C[C@@]34CO4)[C@@H]2C)C(=O)N1[C@@H]1CC[C@H](O)[C@H](C)O1` [Stl, streptolydigin], for which the figures for the MICwild-type in test [1] and in test [2] were 3.13 µg/mL and 1.56 µg/mL, respectively.
On to lipiarmycin [Lpm], for which the MICwild-type in test [1] and in test [2] was 1.56 µg/mL throughout. For the same compound, on E. coli RNAP holoenzyme [4], the “effect … in transcription elongation” value was “do not inhibit transcription elongation”.
As for myxopyronin, the MICwild-type in test [1] and in [2] was 0.20 µg/mL each time. The “effect … in transcription elongation” value on E. coli RNAP holoenzyme [4] is reported as “do not inhibit transcription elongation”. In addition, the “resistance rate (per generation)” value in the test on E. coli D21f2tolC [21] is 3 × 10^−10 per generation.
